Measured values from patent US6488938B1, “Polylactic acid scleral plug” (Santen Pharmaceutical Co., Ltd., priority 1997, dated 2002).

Assay: Release test of ganciclovir from scleral plug in phosphate buffered solution
Type: physicochemical
Conditions: phosphate buffered solution (0.1 M, pH 7.4)
Description: The scleral plug produced in Example 1 was shaken in a phosphate buffered solution (0.1 M, pH 7.4) to release a drug (ganciclovir). The release medium was collected at predetermined intervals and replaced with a new buffer. These operations were repeated. Absorbance of the release medium at 254 nm was measured with a spectrophotometer, and an amount of the released drug was determined.

In the case of Nc1nc(O)c2ncn(COC(CO)CO)c2n1 [ganciclovir], the “decomposition of drug during the release test” value is reported as “does not decompose”.
